# In PubChem BioAssay AID2305 (GlaxoSmithKline (GSK), 2010):
# Tested on: P. falciparum 3D7 growth, pLDH absorbance
# Experiment: P. falciparum 3D7 growth inhibition, dose response, strain 3D7 (AID 2305)
row,SMILES,IC50 [nM]
1,O=C(NCCCCN1CCN(c2cccc3ccccc23)CC1)c1ccc(NC(=O)c2ccc(Cl)cc2)cc1,360
2,Cc1ccc2[nH]c(-c3ccc(C(=O)NC4CCN(Cc5ccccc5)CC4)cc3)nc2c1C,730
3,COc1ccc(C2CC(c3cccs3)=NN2C(=O)CNc2ccccc2F)cc1OC (stereo not drawn),630
4,Nc1nc(-c2ccccn2)nc(-n2nc(-c3cccc(C(F)(F)F)c3)cc2N)n1,1040
5,O=C(/C=C/c1cccc2ccccc12)NCCCCCN1CCC(c2c[nH]c3ccccc23)CC1,1140
6,Cc1cc(C(=O)OCC(=O)Nc2c(C)n(C)n(-c3ccccc3)c2=O)c(C)n1-c1ccc(F)cc1,50
7,CS(=O)(=O)NCCCNCc1ccc(-c2ccc(-c3nc4ccc(F)cc4[nH]3)cc2)cc1,930
8,CC(C)N1CCN(C(CN2CCN(CCCOc3cccc(-c4ccccc4)c3)CC2)c2ccc(F)cc2)CC1 (stereo not drawn),890
9,CNC(=S)NN=C(C)c1ccccn1,270
10,CC(C)COc1ccc(C(O)C(CN2CCCCC2)c2ccccc2)cc1 (stereo not drawn),920
11,COc1cccc(CCc2cccc(CNC(C)=O)c2)c1,1040
12,COc1ccc(S(=O)(=O)Nc2ccc(C(=O)NCc3ccc(C(F)(F)F)cc3)cc2)cc1N1CCN(CC2CC2)CC1,1120
13,CCN(CC)CCNc1ccnc2[nH]c3ccc(C)cc3c12,670
14,O=C(O)CCCN1CCCC(=C(c2ccccc2)c2ccccc2)C1,1190
15,CC(C)c1cccc(C(C)C)c1NC(=O)NNC(=O)c1ccc(CCN2CCC(c3nc(COCC(F)(F)F)c(-c4ccc(F)cc4)o3)CC2)cc1,1090
16,CC(C)c1ccc(CN2CCC(CNC(=O)c3cc(-c4cccc(Cl)c4)cs3)C2)cc1 (stereo not drawn),750
17,CCNc1cc(C(=O)N[C@@H](Cc2ccccc2)[C@H](O)CNC2CCCCC2)cc(N2CCCCS2(=O)=O)c1,170
18,N#Cc1ccc(-c2ccc(C(=O)NC3CCN(CCN4CCc5c(cccc5C(F)(F)F)C4)CC3)cc2)cc1,700
19,O=[N+]([O-])c1cccc(CNC2CCN(Cc3ccc(Cl)c(Cl)c3)CC2)c1,460
20,O=C(/C=C/c1ccc(C(F)(F)F)cc1)N1CCC(CCN2CCC(c3c[nH]c4ccccc34)CC2)CC1,720
21,N#Cc1ccc(-n2cc(C(=O)Nc3ccc4c(c3)CCN(C3CCC3)CC4)c(C(F)(F)F)n2)cc1,290
22,COc1cc(NCCCNC(=O)c2cc3c(Cl)cc(Cl)cc3[nH]2)nc2ccccc12,140
23,COC(=O)c1cccc(NC(=O)NC2CCN(c3ccnc(NCc4ccc(F)cc4)n3)CC2)c1,810
24,CS(=O)(=O)NCCCNCc1ccc(-c2ccc(-c3nc4ccc(F)cc4[nH]3)s2)cc1,810

row,SMILES,IC50 [nM]
1,O=c1[nH]ccc2nc(N[C@@H]3CCCNC3)nc(Nc3ccc(S(=O)(=O)N4CCOCC4)cc3)c12,740
2,O=S(=O)(Nc1cc2c(cc1OCCCN1CCCCC1)CCNCC2)c1ccc(-c2ccc(Cl)cc2)cc1,1000
3,O=C(Nc1ccc(Cl)c(C(F)(F)F)c1)Nc1ccc(Cl)c(C(F)(F)F)c1,770
4,Cn1cncc1C(=O)Nc1cccc(-c2cccc(-c3nc4ccccc4[nH]3)c2)c1,640
5,COc1ccc(NC(=S)NC(NC(=O)CF)C(Cl)(Cl)Cl)cc1[N+](=O)[O-] (stereo not drawn),480
6,COc1ccc(CN2CCCC(N3CC4(OC3=O)c3ccccc3-c3ccccc34)C2)c(O)c1 (stereo not drawn),870
7,COC(=O)c1ccc(CC(C)NCC(O)c2cccc(C(F)(F)F)c2)cc1C (stereo not drawn),970
8,COc1ccc2c(NN=Cc3ccccc3)ccnc2c1,130
9,Cc1[nH]nc2cc(F)c(-c3cc(OC[C@@H](N)Cc4ccccc4)cnc3-c3ccoc3)cc12,1040
10,Cc1ccc(O)c(CN2CCCC(COC(c3ccc(F)cc3)c3ccc(F)cc3)C2)c1 (stereo not drawn),710
11,CCNc1cc(C(=O)N[C@@H](Cc2ccccc2)[C@H](O)CNC2(CC)CC2)cc(N2CCCCS2(=O)=O)c1,1610
12,O=c1cc(NCCC(CNCCc2ccccc2)NCc2cc(Br)cc(Br)c2)[nH]c2ccccc12 (stereo not drawn),510
13,Clc1ccc(CNCCCCCCNCc2ccc(Cl)cc2)cc1,850
14,CC(=O)Nc1ccc(OCCN(Cc2ccccc2C(F)(F)F)c2ccc(C#N)c(C(F)(F)F)c2)cc1,440
15,CC1(C)CCCN(C(=O)Cc2ccc3c(c2)CCCC3)C1CN1CC=CC1 (stereo not drawn),720
16,O=C(Nc1n[nH]c2nc(-c3ccco3)c(Br)cc12)c1ccc(CN2CCCC2)cc1,790
17,CNCCNCc1cccc(-c2cccc(-c3nc4ccc(F)cc4[nH]3)c2)c1,670
18,CCCC(=O)Nc1ccc(OCCN(Cc2ccccc2OC(F)(F)F)c2ccc(C(F)(F)F)c(C#N)c2)cc1,790
19,COc1cc(C)ccc1S(=O)(=O)N1CCCCC(c2ccc(C(F)(F)F)cc2)=N1,770
20,O=C(/C=C/c1ccc(Cl)cc1)NCCCCCN1CCC(C(=O)Nc2ccc(Cl)c(Cl)c2)CC1,770
21,CCNS(=O)(=O)c1ccc(Oc2ccc([N+](=O)[O-])cc2)cc1,170
22,Cc1ccccc1-c1cc(=O)c2cc(NC(=O)c3cccs3)ccc2o1,220
23,CCNCCCC(C)Nc1ccnc2cc(Cl)ccc12 (stereo not drawn),200
24,Cc1[nH]c(C)c(-c2ccc(-c3ccc(OC(F)(F)F)cc3)nc2)c(=O)c1Cl,200
